Test results taken from patent US12252469B2, “Crystalline forms of (E)-N-hydroxy-3-(1-(phenylsulfonyl)indolin-5-yl)acrylamide” (ANBOGEN THERAPEUTICS INC., priority 2023, dated 2025).
Values belong to the compound of their own block, whether it stands above or below them.

Assays:
[1] = Solid stability evaluation for 1/2/4 weeks; settings: for HPLC purity change after solid stability / form change after solid stability: all storage conditions;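 for all read-outs here: Solid-state physical and chemical stability tracked by XRPD for form, KF for water content, and HPLC for purity and assay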
Protocol: Type A/B were stored under the conditions of 60° C., 25° C./60% RH, 25° C./92.5% RH and 40° C./75% RH for 1/2/4 weeks for solid stability evaluation. Amorphous was stored under the conditions of 25° C./60% RH and 40° C./75% RH for 1/2/4 weeks for solid stability evaluation. The physical and chemical stability were evaluated by X-ray powder diffraction (XRPD), thermo gravimetric analysis (TGA)/Karl Fischer (KF), differential scanning calorimetry (DSC)/modulated differential I scanning calorimetry (mDSC), high performance liquid chromatography (HPLC) purity and assay, respectively.
XRPD, TGA, DSC and KF in this example are under the same conditions with those described in Example 2.
Agilent 1260 were utilized and detailed chromatographic conditions are listed in

[2] = Competitive slurry, inter-conversion of Type A and Type B; format: physicochemical
DVS water uptake = format: physicochemical
Protocol: DVS was measured via a SMS (Surface Measurement Systems) DVS Intrinsic or Intrinsic Plus. The relative humidity at 25° C. were calibrated against deliquescence point of LiCl, Mg(NO3)2 and KCl.

[3] = Polymorph characterization: form conversion on drying; format: physicochemical
Protocol: Using ABT-301 Type A (Sample name: ABT-301, CP ID: 826543-01-A) as starting material, a total of 100 polymorph screening experiments were performed, using methods of vapor-solution diffusion, vapor-solid diffusion, slow evaporation, slurry (RT and 50° C.), temperature cycling, slow cooling, anti-solvent addition and grinding.

Compound: O=C(/C=C/c1ccc2c(c1)CCN2S(=O)(=O)c1ccccc1)NO [Amorphous, (E)-N-hydroxy-3-(1-(phenylsulfonyl)indolin-5-yl) acrylamide]
Assay ([1]; 25° C./60% RH, 1 week): 91.3%
Form (XRPD) ([1]; 25° C./60% RH, 1 week): Type A
HPLC purity ([1]; 25° C./60% RH, 1 week): 99.71 Area %
Assay ([1]; 25° C./60% RH, 2 weeks): 92.2%
Form (XRPD) ([1]; 25° C./60% RH, 2 weeks): Type A
HPLC purity ([1]; 25° C./60% RH, 2 weeks): 99.76 Area %
Assay ([1]; 25° C./60% RH, 4 weeks): 90.7%
Form (XRPD) ([1]; 25° C./60% RH, 4 weeks): Type A
HPLC purity ([1]; 25° C./60% RH, 4 weeks): 99.81 Area %
Assay ([1]; 40° C./75% RH, 1 week): 91.5%
Form (XRPD) ([1]; 40° C./75% RH, 1 week): Type A
HPLC purity ([1]; 40° C./75% RH, 1 week): 99.75 Area %
Assay ([1]; 40° C./75% RH, 2 weeks): 92.1%
Form (XRPD) ([1]; 40° C./75% RH, 2 weeks): Type A
HPLC purity ([1]; 40° C./75% RH, 2 weeks): 99.78 Area %
Assay ([1]; 40° C./75% RH, 4 weeks): 90.6%
Form (XRPD) ([1]; 40° C./75% RH, 4 weeks): Type A
HPLC purity ([1]; 40° C./75% RH, 4 weeks): 99.84 Area %
Assay ([1]; Initial): 91.5%
Form (XRPD) ([1]; Initial): Amorphous
HPLC purity ([1]; Initial): 99.84 Area %
HPLC purity change after solid stability ([1]; 4 weeks): no obvious HPLC purity change
form change after solid stability ([1]; 4 weeks): converted to Type A

Compound: O=C(/C=C/c1ccc2c(c1)CCN2S(=O)(=O)c1ccccc1)NO [Type P, (E)-N-hydroxy-3-(1-(phenylsulfonyl)indolin-5-yl) acrylamide]
form conversion on drying ([3]; dried at RT overnight): The sample converted to Type A after dried at RT overnight.

Compound: O=C(/C=C/c1ccc2c(c1)CCN2S(=O)(=O)c1ccccc1)NO [Type Q, (E)-N-hydroxy-3-(1-(phenylsulfonyl)indolin-5-yl) acrylamide]
form conversion on drying ([3]; dried at RT in open air for 8 days and under vacuum for 16.5 hours): The sample converted to Type M after dried at RT in open

The next lines start with results.

Result (form obtained, competitive slurry) ([2]; 2-MeTHF, 50° C., 2 days): Type B
Result (form obtained, competitive slurry) ([2]; 2-MeTHF, RT, 2 days): Type B + P
Result (form obtained, competitive slurry) ([2]; Acetone (aw~0), RT, 2 days): Type D
Result (form obtained, competitive slurry) ([2]; Acetone/H2O (95:5, aw~0.4), RT, 1 day): Type D
Result (form obtained, competitive slurry) ([2]; Acetone/H2O (605:395, aw~0.8), RT, 1 day): Type D
Result (form obtained, competitive slurry) ([2]; Acetone/H2O (857:143, aw~0.6), RT, 1 day): Type D
Result (form obtained, competitive slurry) ([2]; Acetone/H2O (986:14, aw~0.2), RT, 1 day): Type D
Result (form obtained, competitive slurry) ([2]; H2O, RT, 1 day): Type A
Result (form obtained, competitive slurry) ([2]; MIBK, 50° C., 2 days): Type B
Result (form obtained, competitive slurry) ([2]; MIBK, RT, 2 days): Type O
Result (form obtained, competitive slurry) ([2]; Toluene, 50° C., 8 days): Type B
Result (form obtained, competitive slurry) ([2]; Toluene, RT, 1 day, without molecular sieve, KF 0.0250 wt %, water activity 0.32): Type A
Result (form obtained, competitive slurry) ([2]; Toluene, RT, 2 days, with molecular sieve, KF 0.0072 wt %, water activity 0.11): Type B
Result (form obtained, competitive slurry) ([2]; n-Heptane, 50° C., 8 days): Type B
Result (form obtained, competitive slurry) ([2]; n-Heptane, RT, 1 day, without molecular sieve, KF 0.0049 wt %, water activity 0.29): Type A
Result (form obtained, competitive slurry) ([2]; n-Heptane, RT, 2 days, with molecular sieve, KF 0.0003 wt %, water activity 0.02): Type B
Result (form obtained, competitive slurry) ([2]; t-Butanol, RT, 1 day, water activity 0.06): Type B
Result (form obtained, competitive slurry) ([2]; t-Butanol/H2O (886:121), RT, 3 days, water activity 0.88): Type A
Result (form obtained, competitive slurry) ([2]; t-Butanol/H2O (909:10), RT, 1 day, water activity 0.17): Type B
Result (form obtained, competitive slurry) ([2]; t-Butanol/H2O (962:71), RT, 3 days, water activity 0.71): Type A
Result (form obtained, competitive slurry) ([2]; t-Butanol/H2O (980:35), RT, 1 day, water activity 0.37): Type A
Result (form obtained, competitive slurry) ([2]; t-Butanol/H2O (985:30), RT, 3 days, water activity 0.56): Type A
Compound: O=C(/C=C/c1ccc2c(c1)CCN2S(=O)(=O)c1ccccc1)NO [Type A/Type B, (E)-N-hydroxy-3-(1-(phenylsulfonyl)indolin-5-yl) acrylamide]

water uptake (DVS) (DVS water uptake; 25° C./80% RH): 0.1039%
form change after DVS test (XRPD) (DVS water uptake; after DVS test): no form change
water activity at which the form was obtained in competitive slurry ([2]; t-Butanol and t-Butanol/H2O, RT, water activity calculated from KF by COSMOlogic): ≤ 0.17
Assay ([1]; 25° C./60% RH, 1 week): 97.8%
Form (XRPD) ([1]; 25° C./60% RH, 1 week): Type B
HPLC purity ([1]; 25° C./60% RH, 1 week): 99.85 Area %
Assay ([1]; 25° C./60% RH, 2 weeks): 96.8%
Form (XRPD) ([1]; 25° C./60% RH, 2 weeks): Type B
HPLC purity ([1]; 25° C./60% RH, 2 weeks): 99.85 Area %
Assay ([1]; 25° C./60% RH, 4 weeks): 98.2%
Form (XRPD) ([1]; 25° C./60% RH, 4 weeks): Type B
HPLC purity ([1]; 25° C./60% RH, 4 weeks): 99.86 Area %
KF (water content) ([1]; 25° C./60% RH, 4 weeks): 2.0658%
Assay ([1]; 40° C./75% RH, 1 week): 97.6%
Form (XRPD) ([1]; 40° C./75% RH, 1 week): Type B
HPLC purity ([1]; 40° C./75% RH, 1 week): 99.85 Area %
Assay ([1]; 40° C./75% RH, 2 weeks): 97.1%
Form (XRPD) ([1]; 40° C./75% RH, 2 weeks): Type B
HPLC purity ([1]; 40° C./75% RH, 2 weeks): 99.84 Area %
Assay ([1]; 40° C./75% RH, 4 weeks): 97.8%
Form (XRPD) ([1]; 40° C./75% RH, 4 weeks): Type B
HPLC purity ([1]; 40° C./75% RH, 4 weeks): 99.85 Area %
KF (water content) ([1]; 40° C./75% RH, 4 weeks): 0.8491%
Assay ([1]; 60° C., 1 week): 98.0%
Form (XRPD) ([1]; 60° C., 1 week): Type B
HPLC purity ([1]; 60° C., 1 week): 99.84 Area %
Assay ([1]; 60° C., 2 weeks): 96.5%
Form (XRPD) ([1]; 60° C., 2 weeks): Type B
HPLC purity ([1]; 60° C., 2 weeks): 99.80 Area %
Assay ([1]; 60° C., 4 weeks): 97.9%
Form (XRPD) ([1]; 60° C., 4 weeks): Type B
HPLC purity ([1]; 60° C., 4 weeks): 99.76 Area %
KF (water content) ([1]; 60° C., 4 weeks): 1.9894%
Assay ([1]; Initial): 96.8%
Form (XRPD) ([1]; Initial): Type B
HPLC purity ([1]; Initial): 99.85 Area %
KF (water content) ([1]; Initial): 0.5387%
Assay ([1]; […], 1 week): 97.9%
Form (XRPD) ([1]; […], 1 week): Type B
HPLC purity ([1]; […], 1 week): 99.85 Area %
Assay ([1]; […], 2 weeks): 96.8%
Form (XRPD) ([1]; […], 2 weeks): Type B
HPLC purity ([1]; […], 2 weeks): 99.85 Area %
Assay ([1]; […], 4 weeks): 98.1%
Form (XRPD) ([1]; […], 4 weeks): Type B
HPLC purity ([1]; […], 4 weeks): 99.85 Area %
KF (water content) ([1]; […], 4 weeks): 1.8514%
form change after solid stability ([1]; 4 weeks): no form change
Compound: O=C(/C=C/c1ccc2c(c1)CCN2S(=O)(=O)c1ccccc1)NO [Type B, (E)-N-hydroxy-3-(1-(phenylsulfonyl)indolin-5-yl) acrylamide]
HPLC purity change after solid stability ([1]; 4 weeks): no form change, or obvious HPLC purity change
